From PMC8820799, “Angiogenesis and anti-leukaemia activity of novel indole derivatives as potent colchicine binding site inhibitors” (Journal of Enzyme Inhibition and Medicinal Chemistry, 2022)
Converted amounts (≈) assume the structure as drawn. Where two headings read alike, the source gives them in different places.

How the values were obtained:
[1] = molecular target: T1, Tubulin isolated from porcine brain tissue (Sus scrofa, UniProt P02550+P02554); assay: Tubulin polymerisation assay; type: biochemical; conditions: triplicate, mean ± SD; read-out: Tubulin (tubulin inhibitory polymerisation IC50)
T1 construct: purchased Cytoskeleton (Denver, CO), via Beyotime, China; host or cells: porcine brain tissue
T1 sequence (P02554 whole entry): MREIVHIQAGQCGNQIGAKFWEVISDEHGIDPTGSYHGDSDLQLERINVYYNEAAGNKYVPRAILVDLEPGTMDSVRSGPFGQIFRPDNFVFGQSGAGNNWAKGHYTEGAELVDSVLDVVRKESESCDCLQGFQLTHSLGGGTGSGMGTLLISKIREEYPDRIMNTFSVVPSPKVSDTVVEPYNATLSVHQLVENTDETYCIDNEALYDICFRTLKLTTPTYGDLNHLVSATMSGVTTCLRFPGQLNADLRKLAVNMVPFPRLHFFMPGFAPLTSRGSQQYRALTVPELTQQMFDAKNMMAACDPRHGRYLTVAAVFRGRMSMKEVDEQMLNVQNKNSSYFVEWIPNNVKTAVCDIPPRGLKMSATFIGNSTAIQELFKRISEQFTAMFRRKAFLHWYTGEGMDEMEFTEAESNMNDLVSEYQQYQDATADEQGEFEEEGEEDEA
T1 sequence (P02550 whole entry): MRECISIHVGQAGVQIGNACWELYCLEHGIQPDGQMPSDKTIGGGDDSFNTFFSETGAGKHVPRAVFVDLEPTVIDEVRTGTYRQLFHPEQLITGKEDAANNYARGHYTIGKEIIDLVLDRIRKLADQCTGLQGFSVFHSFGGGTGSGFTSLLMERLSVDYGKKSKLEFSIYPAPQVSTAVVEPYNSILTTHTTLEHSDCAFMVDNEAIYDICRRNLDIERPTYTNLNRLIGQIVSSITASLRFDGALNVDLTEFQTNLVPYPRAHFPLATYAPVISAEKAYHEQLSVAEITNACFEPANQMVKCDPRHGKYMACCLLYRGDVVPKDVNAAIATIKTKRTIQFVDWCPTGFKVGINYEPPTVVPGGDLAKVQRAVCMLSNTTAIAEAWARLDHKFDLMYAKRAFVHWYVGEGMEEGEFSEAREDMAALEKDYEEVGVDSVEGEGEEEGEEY
Description: Tubulin polymerisation was determined with the tubulin polymerisation assay kit (Cytoskeleton, Denver, CO which was purchased from Cytoskeleton, Beyotime, China. Tubulin isolated from porcine brain tissue was used in this commercial kit.) It is based on the principal that light is scattered by microtubules to an extent that is proportional to the concentration of the microtubule polymer. Compounds that interact with tubulin will alter the polymerisation of tubulin, and this can be detected using a spectrophotometer. Tubulin polymerisation dynamics was monitored through measuring the change of absorbance at 340 nm every 2 min for 30 min at 37 °C on a spectrophotometer.

[2] = In vitro metabolic stability, mouse liver microsomes; type: in vitro ADME; conditions: 0.4 mg/mL protein
Description: The metabolic stability assay was performed by incubating the test compound in mouse or human liver microsomes (XenoTech, lot no. 1510256) at 37 °C and a protein concentration of 0.4 mg/mL. Microsomal incubations were performed at a substrate concentration of 0.5 µM. Data analysis. Species scaling factors were used to convert the in vitro CLint(mL/min/mg) to an in vivo CLint(mL/min/kg).

[3] = test system: K562; assay: CCK-8 assay, K562; type: cell-based; conditions: Homo sapiens, leukaemia, CML, CCK-8, 72 h
Description: (§1) Cells were seeded in 96-well plates at a density of 8 × 10^3 per well and exposed to different concentrations of compounds for 72 h. Subsequently, 10 µL CCK8 solution was added to each well and co-incubated for another 3–4 h at 37 °C. The absorbance was determined at 450 nm. Data was calculated with GraphPad Prism5 software.[32]

[4] = molecular target: T2, tubulin colchicine binding site (Sus scrofa, UniProt P02550+P02554); assay: [3H]colchicine-tubulin binding assay; conditions: compared with the positive control CA-4; Figure 4D
T2 construct: purchased Cytoskeleton, Inc
T2 sequence (P02554 whole entry): as the sequence (P02554 whole entry) above
T2 sequence (P02550 whole entry): as the sequence (P02550 whole entry) above
Description: One micromolar radiolabeled colchicine [ring C, Methoxy-3H] (Perkin-Elmer), 1% DMSO and various concentrations of test compounds in 50 µL G-PEM buffer containing 80 mmol/L PIPES (pH 6.8), 1 mmol/L EGTA, 1 mmol/L MgCl2 and 1 mmol/L GTP, and 5% glycerol were incu-bated with […] (> 99% pure; Cytoskeleton, Inc.; 0.2 mg/mL) at 37 °C for 60 min. The binding solutions were filtered through a stack of 2 DEAE-cellulose filters and washed twice. The radioactivity in the […] was determined by liquid scintillation spectrometry (Perkin-Elmer Wallac). Nonlinear regression was used to analyse the data using GraphPad Prism.

[5] = test system: K562 cell xenograft in zebrafish embryos; assay: Zebrafish xenograft of K562 cells; type: in vivo; conditions: 2 µM and 6 µM, compared with the control group
Description: K562 cells were labelled with Red CMTPX according to the manufacturer’s protocol. Before the microinjections, Tg(flk:EGFP) embryos were kept at 28 °C and manually dechorionated few hours. At 48 hpf, 4 nL of cells suspension containing 400 labelled cells was microinjected into the yolk of anaesthetised embryos by a pneumatic pico pump (PV820, World Precision Instruments, USA). After injection, embryos were incubated to recover for at least 1 h at 28 °C, the embryos were distributed to 6-well plates with 20 embryos placed in each well. The injected xenografts were exposed to the indicated doses of compounds and maintained at 35 °C. DMSO (0.3%) was used as a vehicle control. The survival and development of the xenografted embryos was recorded every day until the end of experiment. At one day post injection (dpi), fluorescent microscopy was used to examine K562 cells size, death and migration in caudal region of anaesthetised zebrafish.

[6] = Kinetic solubility by nephelometry; type: physicochemical; conditions: kinetic from dmso stock, 1% DMSO
Description: Calculated physicochemical parameters. Physicochemical properties were calculated using the ChemAxon chemistry cartridge via JChem for Excel software (version 16.4.11). Compound 29e in DMSO was spiked into either pH 6.5 phosphate buffer or 0.01 M HCl (approximately pH 2.0) with the final DMSO concentration being 1%. After 30 min had elapsed, samples were analysed via Nephelometry to determine a solubility range.

[7] = test system: HL60; assay: CCK-8 assay, HL60; type: cell-based; conditions: Homo sapiens, HL-60; leukaemia, APL; CCK-8, 72 h
Description: as §1

`COc1cc(C(=O)/C=C/c2cn(S(=O)(=O)c3ccccc3)c3ccccc23)cc(OC)c1OC` [Compound 29e, (E)-3–(1-(Phenylsulfonyl)-1H-indol-3-yl)-1–(3,4,5-trimethoxyphenyl)prop-2-en-1-one] gave an IC50 [1] of 4800 ± 700 nM, a microsomal CLint at 0.5 µM [2] of 77 µL/min/mg and a half-life at 0.5 µM ([2]; 37 °C, read-out: Degradation half-life Mouse) of 1 h. For the same compound, the IC50 [3] was 90 ± 1 nM, the “Effect on tubulin binding of [3H]colchicine” value [4] was “efficiently bound to the [^3H]colchicine binding domain of tubulin” and the “K562 fluorescence intensity and tumour area in zebrafish xenograft” value [5] was “reduced intensities and decreased tumour area”. The solubility at 30 min ([6]; 0.01 M HCl, pH 2, simulated gastric fluid, 0.01 M HCl, read-out: Solubility pH 2.0) was 25 to 50 µg/mL (≈ 52.4 to 105 µM), the solubility at 30 min ([6]; phosphate buffer, pH 6.5, aqueous buffer, phosphate buffer, read-out: Solubility pH 6.5) was at most 150 µg/mL and the IC50 [7] was 180 ± 2 nM.
